# Earlier results, collected in patent publication US20070282422A1, “Medical devices and methods for local delivery of elastin-stabilizing compounds” (Cook Incorporated, priority 2006, published 2007).
# Tests used:
# aortic elastin = conditions: lyophilized aortic elastin strips in buffered solutions of 0.3%-0.8% tannic acid
# [1] = test system: elastin in ascending porcine aorta; conditions: tannic concentrations of about 0.3%
substance,measurement,setting,value
Tannic acid,reduced the susceptibility of the elastin towards elastase,aortic elastin,about 50%
same,elastin stabilization,[1],elastin stabilization
